Like-named read-outs stand apart in the source and are kept apart here.
Key:
HEK293H (PPARγ) = details: for IC10, linear transformed / IC10, linear / logIC10: PPARγ bioassay cytotoxicity, dosing range all; for IC10, linear: linear model; for logIC10: log-logistic model; for IC10, HEK293, PPARγ: cytotoxicity, HEK293 (PPARγ assay cells); for Toxic ratio (TR) TRPPARγ: against baseline cytotoxicity
Method: (§1) Cell culture conditions and bioassay protocols including response detection are provided in Text S2.1–2.4 and Table S3. − Cell viability was determined from cell confluency using an IncuCyte S3 Live-Cell Analysis System (Sartorius AG, Essen, Germany) before and after exposure, except for SH-SY5Y cells (live–dead staining with Nuclear Green LcS1 and propidium iodide, Abcam, UK). For metabolic activation experiments, cell viability was assessed using the ToxBLAzer DualScreen Kit (Thermo Fisher Scientific) to capture the remaining toxicity in ERα-UAS-bla GripTite after treatment with the aCYP catalyst (details in Text S2.4).
(§2) For ARE, the concentration that triggered an induction ratio of 1.5 (ECIR1.5) was used as the benchmark value, as detailed in Text S2.5. IC10 values also served as a threshold for data analysis in all assays; only concentrations below IC10 were considered when deriving EC10 or ECIR1.5.
(§3) We measured the cytotoxicity of BPA and its alternatives in HEK293H (PPARγ), HEK293T (ERα), H4IIe (AhR CALUX), MCF7 (ARE/MMP), and differentiated SH-SY5Y cells (Table S6). […]
(§4) S2.2: Cell Seeding and Incubation. For all bioassays, cell suspensions in the respective assay medium were dispensed into each well of 384-well plates using a MultiFlo Dispenser (Biotek, (now Agilent), Winooski, VT, U.S.). After seeding, the plates were incubated at 37° C and 5% CO₂ for […]. The final cell densities and plate types were as follows: Black poly-D-lysine […]
(§5) 6500 cells/well, ERα: 5000 cells/well. White 384-well plates with a clear bottom (Product No.
(§6) NYC, U.S.) for AhR: 3250 cells/well. Black Collagen I coated plates were used (Product No.
(§7) S2.3: Chemical Dosing and Assay Analysis Procedures. The dosing procedure and high-throughput assay workflow have been described in detail before. 9 The dosing concentrations […]
(§8) Stock solutions were then either added directly to the respective cell culture medium or evaporated under nitrogen, followed by replenishment with fresh medium. The final solvent content in each well was kept below 1% for methanol, 0% for acetonitrile.
(§9) Dosing plates were prepared as 11 -step serial dilutions using a Hamilton Microlab Star robotic system (Hamilton, Bonaduz, Switzerland), and chemicals were dosed in duplicates by transferring 10 μL twice from the dosing plates to the cell plates . After quantifying cell confluency as described in S2. 4., the exposed cells were incubated at 37° C and 5% CO₂ for an additional 24 h. All chemicals were tested in all assays with at least three independent […]
(§10) S2.4: Cell Viability Measurement s and bioanalytical protocols . The confluency as a measure of cell viability was determined with an IncuCyte S3 Live -Cell Analysis System (Sartorius AG, Essen, Germany). With this method the confluency of cells in a microscopy image are normalized to control wells without cells and compared before and after 24 hours of exposure.
(§11) This method has been described previously 13. […]

HEK293T (ERα) = details: for IC10, linear transformed / IC10, linear / logIC10: Bioassay ERα; for IC10, linear transformed / IC10, linear / logIC10 / IC10, HEK293, ERα: cytotoxicity; for IC10, linear: linear model fit; for logIC10: log-logistic model fit; for IC10, HEK293, ERα: HEK293 (ERα assay cells); for Toxic ratio (TR) TRERα: against baseline cytotoxicity
Method: as §1, §2, §3, §4, §5, §6, §7, §8, §9, §10, §11

H4IIe (AhR CALUX) = details: for IC10, linear transformed / IC10, linear / logIC10: Bioassay AhR, dosing range all; for IC10, linear transformed / IC10, linear / logIC10 / IC10, H4IIe, AhR: cytotoxicity; for IC10, linear: linear model fit; for logIC10: log-logistic model fit; for IC10, H4IIe, AhR: H4IIe (AhR assay cells); for Toxic ratio (TR) TRAhR: against baseline cytotoxicity
Method: as §1, §2, §3, §4, §5, §6, §7, §8, §9, §10, §11

MCF7 (ARE/MMP) = details: for IC10, linear transformed / IC10, linear / logIC10: dosing range all; for IC10, MCF7, ARE: MCF7, ARE readout; for IC10, MCF7, MMP: MCF7, MMP readout; for Toxic ratio (TR) TRARE / Toxic ratio (TR) TRMMP: against baseline cytotoxicity; for Toxic ratio (TR) TRARE: ARE readout; for Toxic ratio (TR) TRMMP: MMP readout
Method: as §1, §2, §3, §4, §5, §6, §7, §8, §9, §10, §11

SH-SY5Y cells = details: for IC10, linear transformed / IC10, linear / logIC10: NOI bioassay cytotoxicity, dosing range all; for IC10, linear: linear model; for logIC10: log-logistic model; for IC10, SH-S5Y5, NOI: cytotoxicity, NOI assay cells; for Toxic ratio (TR) TRNOI: against baseline cytotoxicity
Method: as §1, with “S2.4). […]” for “S2.4).”
as §3
medium, supplemented with 2% B-27 Supplement and 2 mM GlutaMAX Supplement. SH - SY5Y cells were differentiated with 10 µM all-trans retinoic acid prior to the assay.
S2.2: Cell Seeding and Incubation. For all bioassays, cell suspensions in the respective assay medium were dispensed into each well of 384-well plates using a MultiFlo Dispenser (Biotek, (now Agilent), Winooski, VT, U.S.). After seeding, the plates were incubated at 37° C and 5% […]
as §6, §7, §8, §9, §10
This method has been described previously 13. Cell viability of SH-SY5Y cells was measured […]
propidium iodide (PI, Abcam, Cambridge, U.K.).14 Nuclear Green LCS1 is a membrane-permeable dye that stains the nuclei of all cells, whereas PI only enters cells with compromised membrane integrity (non-viable cells). After staining, live cells show green nuclei without red fluorescence, while dead cells display both green and red nuclear fluorescence due to PI […]
intercalation. […]

[1] = Bioassay ARE, cytotoxicity, linear model fit
[2] = Bioassay ARE, cytotoxicity, log-logistic model fit
[3] = MMP bioassay cytotoxicity, linear model
[4] = MMP bioassay cytotoxicity, log-logistic model

| Compound | IC10, linear transformed (HEK293H (PPARγ)) | IC10, linear (HEK293H (PPARγ)) | logIC10 (HEK293H (PPARγ)) | IC10, HEK293, PPARγ (HEK293H (PPARγ)) | IC10, HEK293, ERα (HEK293T (ERα)) | IC10, linear transformed (H4IIe (AhR CALUX)) | IC10, linear (H4IIe (AhR CALUX)) | logIC10 (H4IIe (AhR CALUX)) | IC10, H4IIe, AhR (H4IIe (AhR CALUX)) | IC10, linear transformed (MCF7 (ARE/MMP); Bioassay ARE, cytotoxicity) | IC10, linear (MCF7 (ARE/MMP); [1]) | logIC10 (MCF7 (ARE/MMP); [2]) | IC10, linear transformed (MCF7 (ARE/MMP); MMP bioassay cytotoxicity) | IC10, linear (MCF7 (ARE/MMP); [3]) | logIC10 (MCF7 (ARE/MMP); [4]) | IC10, MCF7, ARE (MCF7 (ARE/MMP); cytotoxicity) | IC10, MCF7, MMP (MCF7 (ARE/MMP); cytotoxicity) | IC10, linear transformed (SH-SY5Y cells) | IC10, linear (SH-SY5Y cells) | logIC10 (SH-SY5Y cells) | also measured |
| --- | --- | --- | --- | --- | --- | --- | --- | --- | --- | --- | --- | --- | --- | --- | --- | --- | --- | --- | --- | --- | --- |
| CC(c1ccccc1)(c1ccc(O)cc1)c1ccc(O)cc1 [BPAP, 4,4'-(1-Phenylethylidene)bisphenol] | 3.60E-06 | no cytotoxicity | -4.99 | 10.2 µM | 11.8 µM | 9.59E-05 | no cytotoxicity | -4.02 | 95.9 µM | 3.14E-05 | 2.44E-05 | -4.50 | 3.48E-05 | 2.54E-05 | -4.46 | 31.4 µM | 34.8 µM | 1.06E-04 | no cytotoxicity | -3.97 | IC10, linear transformed (HEK293T (ERα); dosing range all): 1.11E-05; IC10, linear (HEK293T (ERα); dosing range all): no cytotoxicity; logIC10 (HEK293T (ERα); dosing range all): -4.93; IC10, SH-S5Y5, NOI (SH-SY5Y cells): 106 µM |
| CCC(C)(c1ccc(O)cc1)c1ccc(O)cc1 [BPB, 4,4'-(Butane-2,2-diyl)diphenol] | 2.50E-06 | 1.29E-05 | -4.83 | 14.8 µM | 20.9 µM | 8.31E-05 | 6.98E-05 | -4.08 | 69.8 µM | 3.73E-05 | 3.87E-05 | -4.43 | 3.51E-05 | 3.05E-05 | -4.46 | 37.3 µM | 35.1 µM | 1.67E-04 | 2.31E-04 | -3.78 | Toxic ratio (TR) TRPPARγ (HEK293H (PPARγ)): 0.61; IC10, linear transformed (HEK293T (ERα); dosing range high): 6.28E-06; IC10, linear (HEK293T (ERα); dosing range high): no cytotoxicity; logIC10 (HEK293T (ERα); dosing range high): -4.68; IC10, linear (HEK293T (ERα); dosing range low): no cytotoxicity; logIC10 (HEK293T (ERα); dosing range low): no cytotoxicity; Toxic ratio (TR) TRERα (HEK293T (ERα)): 0.43; Toxic ratio (TR) TRAhR (H4IIe (AhR CALUX)): 0.31; Toxic ratio (TR) TRARE (MCF7 (ARE/MMP)): 0.58; Toxic ratio (TR) TRMMP (MCF7 (ARE/MMP)): 0.62; Toxic ratio (TR) TRNOI (SH-SY5Y cells): 0.10; IC10, SH-S5Y5, NOI (SH-SY5Y cells): 167 µM |
| CC(c1ccc(O)cc1)c1ccc(O)cc1 [BPE, 4,4′-Ethylidenbisphenol] | 5.10E-06 | 6.46E-05 | -4.15 | 70.8 µM | 67.4 µM | 1.06E-04 | 8.43E-05 | -3.97 | 84.3 µM | 7.96E-05 | 1.10E-04 | -4.10 | 7.86E-05 | 8.57E-05 | -4.10 | 79.6 µM | 78.6 µM | 2.79E-04 | 5.29E-04 | -3.55 | IC10, linear transformed (HEK293T (ERα); dosing range all): 3.62E-05; IC10, linear (HEK293T (ERα); dosing range all): 6.74E-05; logIC10 (HEK293T (ERα); dosing range all): -4.23; IC10, SH-S5Y5, NOI (SH-SY5Y cells): 279 µM |
| Oc1ccc(Cc2ccc(O)cc2)cc1 [BPF, Bis(4-hydroxyphenyl)methane] | 6.05E-06 | 1.05E-04 | -4.01 | 97.7 µM | 164 µM | 2.92E-04 | 2.92E-04 | -3.53 | 292 µM | 6.56E-04 | 6.90E-04 | -3.18 | 5.26E-04 | 5.00E-04 | -3.28 | 656 µM | 526 µM | 5.69E-04 | 5.56E-04 | -3.24 | IC10, linear transformed (HEK293T (ERα); dosing range all): 1.16E-05; IC10, linear (HEK293T (ERα); dosing range all): 1.61E-04; logIC10 (HEK293T (ERα); dosing range all): -3.78; IC10, SH-S5Y5, NOI (SH-SY5Y cells): 569 µM |
| CC(C)c1cc(C(C)(C)c2ccc(O)c(C(C)C)c2)ccc1O [BPG, 2,2-Bis(4-hydroxy-3-isopropylphenyl)propane] | 3.91E-06 | 5.23E-06 | -5.19 | 6.46 µM | 6.95 µM | 2.43E-05 | 2.10E-05 | -4.61 | 21 µM | 6.03E-06 | 7.17E-06 | -5.22 | 8.72E-06 | 8.88E-06 | -5.06 | 6.03 µM | 8.72 µM | 3.61E-05 | no cytotoxicity | -4.44 | Toxic ratio (TR) TRPPARγ (HEK293H (PPARγ)): 0.22; IC10, linear transformed (HEK293T (ERα); dosing range all): 5.99E-06; IC10, linear (HEK293T (ERα); dosing range all): no cytotoxicity; logIC10 (HEK293T (ERα); dosing range all): -5.16; Toxic ratio (TR) TRERα (HEK293T (ERα)): 0.21; Toxic ratio (TR) TRAhR (H4IIe (AhR CALUX)): 0.25; Toxic ratio (TR) TRARE (MCF7 (ARE/MMP)): 0.88; Toxic ratio (TR) TRMMP (MCF7 (ARE/MMP)): 0.61; Toxic ratio (TR) TRNOI (SH-SY5Y cells): 0.08; IC10, SH-S5Y5, NOI (SH-SY5Y cells): 36.1 µM |
